Reference: US11160870B2, “Extended release microparticles and suspensions thereof for medical therapy” (Graybug Vision, Inc., priority 2017, dated 2021)

System: eye
Experiment: Acute non-GLP IVT ocular tolerability and toxicity study of sunitinib malate (free drug)
Assay type: in vivo, pigmented rabbits
Details: single bilateral IVT injection, up to 7 days
Experimental: An acute, non-GLP IVT study was conducted to evaluate the ocular tolerability and toxicity of sunitinib malate (free drug) for up to 7 days following a single IVT injection. Sunitinib malate was formulated in phosphate buffered saline and injected bilaterally (0.1 mL) at 0.125 or 1.25 mg per eye.

Structure (SMILES): CCN(CC)CCNC(=O)c1c(C)[nH]c(/C=C2\C(=O)Nc3ccc(F)cc32)c1C [sunitinib malate]
- no-observed-adverse-effect-level (NOAEL) dose: 0.125 mg/eye
